Experimental data: publication PMC11446937, “Bacteria from the Amycolatopsis genus associated with a toxic bird secrete protective secondary metabolites” (Nature Communications, 2024)

Experiments:
B. licheniformis DSM13 = assay: Disc-diffusion antimicrobial assay, ecologically relevant indicator strains; type: cell-based, Bacillus licheniformis; conditions: Suppl. Table 16, pure compounds 10 mg/mL in DMSO, 5 µl per disc, control Cip 5 µg/mL (HCl), DMSO control 0, n=1
P. monteilii DSM1388 = assay: as above; type: cell-based, Pseudomonas monteilii; conditions: Suppl. Table 16, pure compounds 10 mg/mL in DMSO, 5 µl per disc, control Cip 5 µg/mL (HCl), DMSO control 0, n=1
[1] = system: B. thuringiensis DSM104061; assay: as above; type: cell-based, Bacillus thuringiensis; conditions: Suppl. Table 16, pure compounds 10 mg/mL in DMSO, 5 µl per disc, control Cip 5 µg/mL (HCl), DMSO control 0, n=1
K. rhizophila DSM11926 = assay: as above; type: cell-based, Kocuria rhizophila; conditions: Suppl. Table 16, pure compounds 10 mg/mL in DMSO, 5 µl per disc, control Cip 5 µg/mL (HCl), DMSO control 0, n=1
E. coli SG458 = assay: Disc-diffusion antimicrobial assay, clinically relevant indicator strains; conditions: Suppl. Table 17, 1 mg/mL in DMSO, 50 µl (50 µg) per disc, Cip 5 µg/mL (H2O/HCl), DMSO solvent control itself 12P, n=3
[2] = system: Sporobomyces salmonicolor 549; assay: as above; type: cell-based; conditions: Suppl. Table 17, 1 mg/mL in DMSO, 50 µl (50 µg) per disc, Amph B 10 µg/mL (DMSO/H2O), DMSO solvent control itself 13P, n=3
Method: (§1) Disc-diffusion antimicrobial activity assays against clinically relevant indicator strains.
(§2) Pure compounds (1 mg/mL in DMSO or 50% MeOH) were tested for their antimicrobial activity against a variety of bacterial and fungal indicator strains: B. subtilis 6633 (Bs), S. aureus SG511 (Sa1), E. coli SG458 (Ec), P. aeruginosa K799/61 (Pa), S. aureus 134/94 (MRSA) (Sa2), E. faecalis 1528 (VRSA) (Ef), Mycobacterium vaccae 10670 (Mv), Sporobomyces salmonicolor 549 (Ss), C. albicans C.A. (Ca), and Penicillium notatum JP36 (Pn). On each disc, 50 µl compound solution (50 µg) were applied. Antimicrobial activity was determined by measuring the inhibition zone surrounding the disc in mm (n=3).
(§3) Bs: B. subtilis 663, Sa1: S. aureus SG511, Ec: E. coli SG458, Pa: P. aeruginosa K799/61, Sa2: S. aureus 134/94 (MRSA), Ef: E. faecalis 1528 (VRSA), Mv: M. vaccae 10670, Ss: S. salmonicolor 549, Ca: C. albicans C.A., Pn: P. notatum JP36. P: colonies in the inhibition zone, p: single colonies in the inhibition zone. A: no to low inhibition, n.t.: not tested.
(§4) B. subtilis 663, Sa1: S. aureus SG511, Ec: E. coli SG458, Ca: C. albicans C.A., P: colonies in the inhibition zone, […]

Penicillium notatum JP36 = assay: as above; type: cell-based; conditions: Suppl. Table 17, 1 mg/mL in DMSO, 50 µl (50 µg) per disc, Amph B 10 µg/mL (DMSO/H2O), DMSO solvent control itself 12P, n=3
Method: as §1, §2, §3, §4

C. albicans SC5314 = assay: Disc-diffusion antimicrobial assay, ecologically relevant indicator strains; type: cell-based, Candida albicans; conditions: Suppl. Table 16, pure compounds 10 mg/mL in DMSO, 5 µl per disc, control Amph B 10 µg/mL (DMSO/H2O), DMSO control 0, n=1
DENV2 NS2B-NS3 = assay: Fluorimetric protease inhibition assay; type: biochemical; conditions: 200 µM, 10 min, mean ± standard deviation, n=3
sortase A (SrtA) = conditions: 200 µM
cathepsin L = assay: Fluorimetric protease inhibition assay; type: biochemical; conditions: 200 µM, 10 min, mean ± standard deviation, n=3
S. aureus SG511 = assay: Disc-diffusion antimicrobial assay, clinically relevant indicator strains; conditions: Suppl. Table 17, 1 mg/mL in DMSO, 50 µl (50 µg) per disc, Cip 5 µg/mL (H2O/HCl), DMSO solvent control itself 11P, n=3
P. aeruginosa K799/61 = conditions: Suppl. Table 17; disc diffusion; 1 mg/mL in DMSO, 50 µl (50 µg) per disc; Cip 5 µg/mL (H2O/HCl); DMSO solvent control itself 12P; n=3
S. aureus 134/94 (MRSA) = assay: Disc-diffusion antimicrobial assay, clinically relevant indicator strains; conditions: Suppl. Table 17, 1 mg/mL in DMSO, 50 µl (50 µg) per disc, Cip 5 µg/mL (H2O/HCl), DMSO solvent control 0, n=3
B. subtilis 6633 = assay: as above; conditions: Suppl. Table 17, 1 mg/mL in DMSO, 50 µl (50 µg) per disc, Cip 5 µg/mL (H2O/HCl), DMSO solvent control itself 12P, n=3
SARS-CoV2 Mpro = conditions: 200 µM; fluorimetric, 10 min; mean ± standard deviation, n=3
cruzain = assay: Fluorimetric protease inhibition assay; type: biochemical, Trypanosoma cruzi; conditions: 200 µM, 10 min, mean ± standard deviation, n=3
SARS-CoV PLpro = conditions: 200 µM; fluorimetric, 10 min; mean ± standard deviation, n=3
urokinase (uPA) = assay: Fluorimetric protease inhibition assay; type: biochemical; conditions: 200 µM, 10 min, mean ± standard deviation, n=3
rhodesain = conditions: 200 µM
[3] = system: Mycobacterium vaccae 10670; assay: Disc-diffusion antimicrobial assay, clinically relevant indicator strains; conditions: Suppl. Table 17, 1 mg/mL in DMSO, 50 µl (50 µg) per disc, Cip 5 µg/mL (H2O/HCl), DMSO solvent control itself 11P, n=3
ZIKV NS2B-NS3 = conditions: 200 µM
cathepsin B = assay: Fluorimetric protease inhibition assay; type: biochemical; conditions: 200 µM, 10 min, mean ± standard deviation, n=3
C. albicans C.A. = assay: Disc-diffusion antimicrobial assay, clinically relevant indicator strains; type: cell-based; conditions: Amph B 10 µg/mL (DMSO/H2O)
Method: as §1, §2, §3, §4

E. faecalis 1528 = assay: as above; conditions: Suppl. Table 17, 1 mg/mL in DMSO, 50 µl (50 µg) per disc, Cip 5 µg/mL (H2O/HCl), DMSO solvent control itself 12p, n=3
[4] = Suppl. Table 17, disc diffusion, 1 mg/mL in DMSO, 50 µl (50 µg) per disc, DMSO solvent control 0, n=3

Row | Compound | inhibition zone, Bl (B. licheniformis DSM13) | inhibition zone, Pm (P. monteilii DSM1388) | inhibition zone, Bt [1] | inhibition zone, Kr (K. rhizophila DSM11926) | inhibition zone, Ec (E. coli SG458) | inhibition zone, Ss [2] | inhibition zone, Pn (Penicillium notatum JP36) | inhibition zone, Ca2 (C. albicans SC5314) | Protease inhibition rate, DENV2 (DENV2 NS2B-NS3) | Protease inhibition rate, SrtA (sortase A (SrtA)) | Protease inhibition rate, Cathepsin L (cathepsin L) | inhibition zone, Sa1 (S. aureus SG511) | inhibition zone, Sa2 (S. aureus 134/94 (MRSA)) | inhibition zone, Bs (B. subtilis 6633) | Protease inhibition rate, Mpro (SARS-CoV2) (SARS-CoV2 Mpro) | Protease inhibition rate, Cruzain (cruzain) | Protease inhibition rate, PLpro (SARS-CoV) (SARS-CoV PLpro) | Protease inhibition rate, uPA (urokinase (uPA)) | Protease inhibition rate, Rhodesain (rhodesain) | Protease inhibition rate, Cathepsin B (cathepsin B) | also measured
1 | O=C(O)c1cn(C2CC2)c2cc(N3CCNCC3)c(F)cc2c1=O [Cip, Ciprofloxacin, reference compound] | 35 mm | 33 mm | 28 mm | 22 mm |  |  |  |  |  |  |  |  |  |  |  |  |  |  |  |  | 
2 | Pachycephalamide A [Compound 1] | 0 mm | 0 mm | 0 mm | 0 mm | 0 mm | 15p | 11p | 0 mm | 8.57 ± 3.83% | 12.86 ± 2.35 | 61.88 ± 2.85% | 0 mm | 0 mm | 0 mm | 12.82 ± 8.66% | 64.85 ± 1.50% | 1.01 ± 1.74% | 8.32 ± 4.90% | 55.29 ± 2.15 | 55.19 ± 2.16% | inhibition zone, Pa (P. aeruginosa K799/61): 18P; inhibition zone, Mv [3]: 0 mm; Protease inhibition rate, ZIKV (ZIKV NS2B-NS3): 7.99 ± 3.53
3 | Pachycephalamide C [Compound 3] | 0 mm | 0 mm | 0 mm | 0 mm | 15P | 22p | 13p | 0 mm | 9.19 ± 3.06% | 14.00 ± 4.62 | 62.51 ± 4.09% | 0 mm | 0 mm | 0 mm | 9.25 ± 7.28% | 63.82 ± 1.43% | 0 ± 0% | 0 ± 0% | 58.33 ± 1.36 | 56.16 ± 6.18% | inhibition zone, Ca (C. albicans C.A.; [4]): 0 mm
4 | C[C@@H]1[C@H](O)[C@@H](C)/C=C/C=C/C=C/C=C/C=C/C=C/C=C/[C@H](O[C@@H]2O[C@H](C)[C@@H](O)[C@H](N)[C@@H]2O)C[C@@H]2O[C@](O)(C[C@@H](O)C[C@@H](O)[C@H](O)CC[C@@H](O)C[C@@H](O)CC(=O)O[C@H]1C)C[C@H](O)[C@H]2C(=O)O [Amph B, Amphotericin B, reference compound] |  |  |  |  |  | 17p | 18p | 20 mm |  |  |  |  |  |  |  |  |  |  |  |  | inhibition zone, Ca (C. albicans C.A.; [4]): 20 mm; inhibition zone, Ca (C. albicans C.A.; Suppl. Table 18, compound mixtures, total conc. 1 mg/mL in 50% MeOH, solvent control 0, n=1): 21 mm
5 | Pachycephalamide D [Compound 4] | 0 mm | 0 mm | 0 mm | 0 mm | 13P | 25p | 12p | 0 mm | 33.81 ± 3.08% | 28.78 ± 4.59 | 78.67 ± 2.19% | 0 mm | 0 mm | 0 mm | 24.32 ± 2.62% | 73.97 ± 1.54% | 2.05 ± 2.29% | 0.56 ± 0.90% | 72.76 ± 1.07 | 73.50 ± 4.05% | inhibition zone, Ca (C. albicans C.A.; [4]): 0 mm; inhibition zone, Pa (P. aeruginosa K799/61): 18P; inhibition zone, Mv [3]: 0 mm; Protease inhibition rate, ZIKV (ZIKV NS2B-NS3): 35.04 ± 1.21
6 | Pachycephalamide B [Compound 2] | 0 mm | 0 mm | 0 mm | 0 mm | 15P | 14p | 13p | 0 mm | 29.25 ± 7.00% | 61.07 ± 4.93 | 50.42 ± 1.21% | 0 mm | 0 mm | 0 mm | 57.34 ± 9.94% | 49.62 ± 3.44% | 14.94 ± 1.31% | 0 ± 0% | 47.71 ± 2.73 | 54.94 ± 2.96% | inhibition zone, Ca (C. albicans C.A.; [4]): 0 mm; inhibition zone, Pa (P. aeruginosa K799/61): 18P; Protease inhibition rate, ZIKV (ZIKV NS2B-NS3): 29.95 ± 3.36
7 | Pachycephalamide E [Compound 5] | 0 mm | 0 mm | 0 mm | 7 mm | 15P | 19p | 14p | 0 mm | 19.02 ± 6.12% | 17.94 ± 1.28 | 47.31 ± 2.53% | 0 mm | 0 mm | 0 mm | 14.75 ± 7.06% | 43.80 ± 2.31% | 0 ± 0% | 0 ± 0% | 48.22 ± 1.63 | 47.52 ± 9.52% | inhibition zone, Ca (C. albicans C.A.; [4]): 0 mm; inhibition zone, Pa (P. aeruginosa K799/61): 17P; inhibition zone, Ef (E. faecalis 1528): 13p; Protease inhibition rate, ZIKV (ZIKV NS2B-NS3): 22.71 ± 1.47
